Experimental data taken from ChEMBL document CHEMBL1201862, “PubChem BioAssay data set” (2004).
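Following 48 hours of exposure in 96-well plates, responses at five concentrations were used to interpolate endpoints linearly. At the GI50, growth is halved.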 Activity calls are given as the source filed them. Rule as the data show it: active = GI50 up to about 1.1 µM and inactive = higher.

How the values were obtained:
Experiment in all cases: NCI-60 cell line screen, 48 h
ACHN = test system: ACHN
COLO 205 = test system: COLO 205
IGROV-1 = test system: IGROV-1
Malme-3M = test system: Malme-3M
NCI-H23 = test system: NCI-H23
OVCAR-4 = test system: OVCAR-4
OVCAR-5 = test system: OVCAR-5
RPMI-8226 = test system: RPMI-8226
RXF 393 = test system: RXF 393
SF-268 = test system: SF-268
SF-295 = test system: SF-295
SK-MEL-28 = test system: SK-MEL-28
SK-MEL-2 = test system: SK-MEL-2
SNB-75 = test system: SNB-75
UACC-62 = test system: UACC-62
EKVX = test system: EKVX
OVCAR-8 = test system: OVCAR-8
HCC 2998 = test system: HCC 2998

Measured: GI50

COC1CCC(OS(C)(=O)=O)CO1 (stereo not given)
inactive: ACHN > 100 µM | COLO 205 > 100 µM | IGROV-1 > 100 µM | Malme-3M > 100 µM | NCI-H23 > 100 µM | OVCAR-4 > 100 µM | OVCAR-5 42.2 µM | RPMI-8226 26.2 µM | RXF 393 > 100 µM | SF-268 86.7 µM | SF-295 > 100 µM | SK-MEL-28 > 100 µM | SK-MEL-2 > 100 µM | SNB-75 60.5 µM | UACC-62 > 100 µM

CC1Cc2c(N)nc(N3CCOCC3)nc2NC1=O (stereo not given)
inactive: ACHN > 100 µM | COLO 205 > 100 µM | EKVX > 100 µM | IGROV-1 > 100 µM | Malme-3M > 100 µM | NCI-H23 > 100 µM | OVCAR-8 > 100 µM | RPMI-8226 > 100 µM | RXF 393 > 100 µM | SF-295 > 100 µM | SK-MEL-28 > 100 µM | SK-MEL-2 > 100 µM | SNB-75 5.53 µM | UACC-62 > 100 µM

CC1C=CC(=O)C(n2cc(F)c(=O)[nH]c2=O)O1 (stereo not given)
inactive: ACHN 20 µM | COLO 205 20.1 µM | EKVX 22.5 µM | IGROV-1 20.8 µM | Malme-3M 14.2 µM | NCI-H23 18.1 µM | OVCAR-4 18.5 µM | OVCAR-8 22.4 µM | RPMI-8226 14.4 µM | RXF 393 19.8 µM | SF-295 > 10 µM | SK-MEL-28 23.4 µM | SNB-75 18.8 µM | UACC-62 16.2 µM

COC1=CC(=O)c2ccccc2C1(CCC=C(C)C)C1=NC(C)(C)CO1 (stereo not given)
inactive: ACHN 6.62 µM | COLO 205 > 100 µM | EKVX 71.8 µM | IGROV-1 84.5 µM | Malme-3M 78.7 µM | NCI-H23 91.2 µM | OVCAR-4 71.9 µM | OVCAR-8 70.8 µM | RPMI-8226 32.2 µM | RXF 393 56.4 µM | SF-268 > 100 µM | SF-295 55.5 µM | SK-MEL-28 > 100 µM | SK-MEL-2 83.6 µM | SNB-75 > 100 µM | UACC-62 > 100 µM

Cc1ccc2c(c1)C1(OC(=O)c3ccccc31)c1ccc(F)cc1O2 (stereo not given)
inactive: COLO 205 38.7 µM | EKVX 59 µM | HCC 2998 66.1 µM | IGROV-1 > 100 µM | Malme-3M 67.8 µM | OVCAR-4 49.8 µM | OVCAR-5 > 100 µM | OVCAR-8 > 100 µM | RPMI-8226 24.2 µM | SF-268 68.4 µM | SK-MEL-2 43.3 µM | UACC-62 70.6 µM

CN1C(=O)NC2(O)c3ccccc3C(=O)C12O (stereo not given)
inactive: COLO 205 > 100 µM | EKVX > 100 µM | IGROV-1 > 100 µM | Malme-3M > 100 µM | NCI-H23 > 100 µM | OVCAR-4 > 100 µM | OVCAR-5 > 100 µM | OVCAR-8 > 100 µM | RPMI-8226 > 100 µM | SF-268 > 100 µM | SF-295 > 100 µM | SK-MEL-28 > 100 µM | SK-MEL-2 > 100 µM | SNB-75 > 100 µM | UACC-62 > 100 µM

CCOC(=O)C1=C(Nc2ccccc2)OC/C1=N\NC(=O)Cc1ccccc1
inactive: COLO 205 > 50 µM | EKVX > 50 µM | HCC 2998 > 50 µM | IGROV-1 > 50 µM | Malme-3M > 50 µM | NCI-H23 > 50 µM | OVCAR-4 > 50 µM | OVCAR-5 > 50 µM | OVCAR-8 > 50 µM | RPMI-8226 > 50 µM | RXF 393 > 50 µM | SF-268 > 50 µM | SF-295 > 50 µM | SK-MEL-28 > 50 µM | SK-MEL-2 > 50 µM | SNB-75 31.4 µM | UACC-62 > 50 µM

Cc1ccc(C2=C(c3ccccc3)C(Br)(c3ccc(C)cc3)C(c3ccccc3)=C2c2ccc(C)cc2)cc1
inactive: ACHN > 100 µM | COLO 205 > 100 µM | EKVX > 100 µM | HCC 2998 > 100 µM | IGROV-1 > 100 µM | Malme-3M > 100 µM | NCI-H23 > 100 µM | OVCAR-4 > 100 µM | OVCAR-5 > 100 µM | OVCAR-8 > 100 µM | RPMI-8226 > 100 µM | SF-268 > 100 µM | SF-295 > 100 µM | SK-MEL-28 > 100 µM | SK-MEL-2 > 100 µM | UACC-62 > 100 µM

Cc1ccccc1NC(=O)CC(=O)N1N=C(N2c3ccccc3Sc3ccccc32)CC1c1ccccc1 (stereo not given)
inactive: ACHN > 100 µM | COLO 205 > 100 µM | EKVX > 100 µM | HCC 2998 > 100 µM | IGROV-1 > 100 µM | Malme-3M > 100 µM | NCI-H23 > 100 µM | OVCAR-4 > 100 µM | OVCAR-5 > 100 µM | OVCAR-8 > 100 µM | RPMI-8226 > 100 µM | SF-268 > 100 µM | SF-295 > 100 µM | SK-MEL-28 > 100 µM | SNB-75 > 100 µM | UACC-62 > 100 µM

COc1ccccc1C1C(C(=O)O)=C(CO)Oc2cc3c(cc21)OCO3 (stereo not given)
inactive: ACHN > 100 µM | COLO 205 > 100 µM | EKVX > 100 µM | IGROV-1 > 100 µM | Malme-3M > 100 µM | NCI-H23 > 100 µM | OVCAR-8 > 100 µM | RPMI-8226 > 100 µM | SF-268 > 100 µM | SF-295 > 100 µM | SK-MEL-28 > 100 µM | SK-MEL-2 > 100 µM | SNB-75 > 100 µM | UACC-62 > 100 µM

Cc1ccccc1NC(=O)C(=O)C1CN(c2ccccc2)N=C1N (stereo not given)
inactive: EKVX > 100 µM | HCC 2998 > 100 µM | IGROV-1 > 100 µM | Malme-3M > 100 µM | NCI-H23 > 100 µM | OVCAR-4 > 100 µM | OVCAR-8 > 100 µM | RXF 393 > 100 µM | SF-268 > 100 µM | SK-MEL-28 > 100 µM | SNB-75 86.5 µM

CCN(CC)CC(C)(C)C(=O)/C=C/c1ccc(C)cc1
inactive: ACHN 14.6 µM | EKVX 4.88 µM | HCC 2998 10 µM | Malme-3M 9.46 µM | NCI-H23 > 10 µM | OVCAR-4 11.6 µM | OVCAR-5 14.5 µM | OVCAR-8 11.8 µM | RXF 393 9.62 µM | SF-268 10.1 µM | SF-295 13.2 µM | SK-MEL-28 13.5 µM | SK-MEL-2 12.7 µM | SNB-75 6.98 µM | UACC-62 13.6 µM

CC1CC2=Nc3ccccc3NC(c3ccccc3)C2=C(O)O1 (stereo not given)
inactive: ACHN > 100 µM | COLO 205 > 100 µM | EKVX > 100 µM | HCC 2998 > 100 µM | IGROV-1 > 100 µM | Malme-3M > 100 µM | NCI-H23 > 100 µM | OVCAR-5 > 100 µM | OVCAR-8 > 100 µM | RXF 393 > 100 µM | SF-268 > 100 µM | SK-MEL-28 > 100 µM | SK-MEL-2 > 100 µM | SNB-75 > 100 µM | UACC-62 93.8 µM

CC(C)(C)C1=NO[C@H]2[C@@H](NC(=O)c3ccccc3)CC[C@@H]12
inactive: ACHN > 100 µM | COLO 205 > 100 µM | HCC 2998 > 100 µM | IGROV-1 > 100 µM | Malme-3M > 100 µM | NCI-H23 > 100 µM | OVCAR-4 > 100 µM | OVCAR-5 > 100 µM | OVCAR-8 > 100 µM | RPMI-8226 > 100 µM | RXF 393 > 100 µM | SF-268 > 100 µM | SF-295 > 100 µM | SK-MEL-28 > 100 µM | SNB-75 38.3 µM | UACC-62 > 100 µM

CC(C(=O)C(C)O[Si](c1ccccc1)(c1ccccc1)C(C)(C)C)=P(c1ccccc1)(c1ccccc1)c1ccccc1 (stereo not given)
inactive: ACHN 4.08 µM | COLO 205 1.8 µM | EKVX 12.9 µM | HCC 2998 3.57 µM | IGROV-1 3.7 µM | Malme-3M 3.13 µM | NCI-H23 3.23 µM | OVCAR-4 3.37 µM | OVCAR-5 11 µM | OVCAR-8 3.82 µM | RPMI-8226 2.34 µM | SF-295 3.33 µM | SK-MEL-2 2.5 µM | SNB-75 3.41 µM | UACC-62 3.94 µM

CCCCC1=CSC(c2ccccc2)=C(c2ccccc2)S1
inactive: COLO 205 > 100 µM | EKVX > 100 µM | HCC 2998 37.6 µM | IGROV-1 > 100 µM | NCI-H23 36.1 µM | OVCAR-4 37.6 µM | OVCAR-8 73.8 µM | RPMI-8226 9.23 µM | SF-295 36.5 µM | SK-MEL-28 63.5 µM | SNB-75 57 µM | UACC-62 40.5 µM

Cn1cnc([N+](=O)[O-])c1Sc1nc2cc([N+](=O)[O-])ccc2[nH]1
inactive: ACHN 36.5 µM | COLO 205 10.4 µM | EKVX 10.5 µM | HCC 2998 15 µM | IGROV-1 19 µM | Malme-3M > 10 µM | NCI-H23 23.8 µM | OVCAR-4 46.6 µM | OVCAR-5 48.4 µM | OVCAR-8 14.7 µM | RPMI-8226 21.6 µM | RXF 393 17.5 µM | SF-268 19.9 µM | SF-295 > 100 µM | SK-MEL-28 15.3 µM | SNB-75 26.2 µM | UACC-62 11.9 µM

Cc1cc(C(C)(C)C)cc(Cc2cc(C(C)(C)C)cc(Cc3cc(C(C)(C)C)cc(C)c3O)c2O)c1O
inactive: COLO 205 16.2 µM | EKVX 10.8 µM | IGROV-1 11.3 µM | Malme-3M 10.7 µM | NCI-H23 10 µM | OVCAR-4 7.5 µM | OVCAR-5 17.5 µM | OVCAR-8 5.5 µM | RPMI-8226 2.47 µM | RXF 393 2.19 µM | SF-268 2.89 µM | SF-295 16 µM | SK-MEL-2 10.4 µM | SNB-75 4.49 µM | UACC-62 6.84 µM
